This note sets out measurements from patent EP4737442A1, “DIAMINOVINYLIDENE DERIVATIVE OR SALT THEREOF, PEST CONTROL AGENT CONTAINING SAID COMPOUND, AND METHODS FOR USING THESE” (ADEKA CORPORATION, priority 2023, dated 2025).

Each structure is given as a SMILES string. A value given as a limit tells only on which side of the number the result lay.

One assay deals with Dirofilaria immitis. Kind of assay: Effect test on Dirofilaria immitis (larval motility inhibition). The settings on record: 168 h, read-out: motility inhibition rate.
For another assay, the system named is Plutella xylostella. Briefly: Insecticidal test against Plutella xylostella. To be noted: in Brassica rapa, 144 h, read-out: corrected mortality (%), assessment.
The next assay concerns Laodelphax striatellus. Kind of assay: Insecticidal test against Laodelphax striatellus. The settings on record: in Oryza sativa, 192 h, read-out: corrected mortality (%), assessment.
In assay [1] the test system is Frankliniella occidentalis. Kind of assay: Insecticidal test against Frankliniella occidentalis. To be noted: in Phaseolus vulgaris, 96 h, read-out: corrected mortality (%), assessment.
Description: Female adults of Frankliniella occidentalis were inoculated onto Phaseolus vulgaris leaf pieces, and after allowing them to lay eggs for one day, the female adults were removed. […] Four days after the treatment, the number of surviving larvae of this species larvae was examined.

Description for Plutella xylostella: Six days after the immersion in the drug solution, the number of surviving insects was examined.

What is called inhibition is how much of the control response was suppressed. As usually defined, the mortality is the percentage killed. For the compound `COCCOC(=O)N1C(=O)C(=C(Nc2cccc(F)c2)Nc2cccc(F)c2)C(=O)CN1c1ccc(C#N)nc1` [6-6], the inhibition at 100 µM with Dirofilaria immitis is not below 50%. The mortality at 500 µg/mL (in the assay with Plutella xylostella; in assay [1]) was 100% in each case. The mortality at 500 ppm in the assay with Laodelphax striatellus came to 100%.
As for `CNC(Nc1ccc(F)cc1)=C1C(=O)CN(c2cnc(C#N)c(Br)c2)N(C(=O)OC)C1=O` [6-20], the inhibition at 100 µM in the assay on Dirofilaria immitis was not below 50%. Besides, the mortality at 500 ppm in the assay on Laodelphax striatellus was 100%. For the same compound, in assay [1], the mortality at 500 µg/mL came out at 100%.
Turning to `CNC(Nc1ccc(F)cc1)=C1C(=O)CN(c2ccc(C#N)nc2)N(Cc2cnc(Cl)s2)C1=O` [6-38], the inhibition at 100 µM in the assay on Dirofilaria immitis is not below 50%. For the same compound, the mortality at 500 µg/mL in assay [1] came out at 100%.
Consider `CSC(Nc1ccc(F)nc1)=C1C(=O)CC(c2nc(-c3ccc(F)cc3)cs2)NC1=O` (centres unmarked) [9-36], for which the inhibition at 100 µM with Dirofilaria immitis is not below 50%. Besides, the mortality at 500 µg/mL (in the assay on Plutella xylostella; in assay [1]) was 100% each time. The mortality at 500 ppm with Laodelphax striatellus worked out at 100%.
With `COC(=O)N1C(=O)C(=C(Nc2ccc(F)cc2)Nc2ccc(F)cc2)C(=O)CN1c1ccc(C#N)nc1` [6-4], the inhibition at 100 µM in the assay with Dirofilaria immitis was not below 50%. The mortality at 500 ppm in the assay with Laodelphax striatellus stood at 100%. In addition, the mortality at 500 µg/mL in assay [1] was 100%.
On to `CNC(Nc1ccc(F)cc1)=C1C(=O)CN(c2cnc(C#N)c(Br)c2)N(C)C1=O` [6-47], for which the inhibition at 100 µM in the assay with Dirofilaria immitis is not below 50%. Further, the mortality at 500 ppm in the assay with Laodelphax striatellus turned out to be 100%. For the same compound, in assay [1], the mortality at 500 µg/mL was 100%.
For the compound `CSC(Nc1ccc(F)nc1)=C1C(=O)CC(c2cc(OC(F)F)n(C)n2)NC1=O` (centres unmarked) [9-35], the inhibition at 100 µM with Dirofilaria immitis is not below 50%. Moreover, the mortality at 500 µg/mL (with Plutella xylostella; in assay [1]) was 100% each time. Further, the mortality at 500 ppm in the assay with Laodelphax striatellus worked out at 100%.
